Source: PubChem BioAssay (NCI)
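Interpolation was linear, between the two tested concentrations surrounding the appropriate level; five concentrations were tested over 48 hours in 96-well plates. Abbreviation: GI50, concentration required for 50% inhibition of growth. TGI denotes the concentration required for complete inhibition of growth.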

Assays:
Assay in all cases: growth of human tumour cells (NCI), 48 h
A498 renal = tested on: A498 renal
HCT-15 colon = tested on: HCT-15 colon
LOX IMVI melanoma = tested on: LOX IMVI melanoma
UACC-62 melanoma = tested on: UACC-62 melanoma
NCI-H460 lung = tested on: NCI-H460 lung
OVCAR-5 ovarian = tested on: OVCAR-5 ovarian
SK-OV-3 ovarian = tested on: SK-OV-3 ovarian
HOP-62 NSCLC = tested on: HOP-62 NSCLC
IGROV1 ovarian = tested on: IGROV1 ovarian
SNB-75 CNS = tested on: SNB-75 CNS

| SMILES | GI50 (A498 renal) | TGI (A498 renal) | GI50 (HCT-15 colon) | TGI (HCT-15 colon) | GI50 (LOX IMVI melanoma) | TGI (LOX IMVI melanoma) | GI50 (UACC-62 melanoma) | TGI (UACC-62 melanoma) | GI50 (NCI-H460 lung) | TGI (NCI-H460 lung) | GI50 (OVCAR-5 ovarian) | TGI (OVCAR-5 ovarian) | GI50 (SK-OV-3 ovarian) | TGI (SK-OV-3 ovarian) | GI50 (HOP-62 NSCLC) | TGI (HOP-62 NSCLC) | GI50 (IGROV1 ovarian) | TGI (IGROV1 ovarian) | GI50 (SNB-75 CNS) | TGI (SNB-75 CNS) |
| --- | --- | --- | --- | --- | --- | --- | --- | --- | --- | --- | --- | --- | --- | --- | --- | --- | --- | --- | --- | --- |
| CC(Cl)CC(=O)Nc1ccc2c(c1)oc(=O)c1cc(NC(=O)CC(C)Cl)ccc12 (stereo not given) | 16.1 µM | 38 µM | 13.2 µM | 45.8 µM | 4.46 µM | 21.9 µM | 15.1 µM | 49.9 µM | 13.7 µM | 40.9 µM | 16.8 µM | 46.3 µM | 15.6 µM | 76.7 µM | 11.5 µM | 28.2 µM | 1.73 µM | 23.1 µM | 15.1 µM | 48.7 µM |
| O=C(Nc1ccc(-c2nc3ccc(NC(=O)c4ccc(Cl)cc4)cc3[nH]2)cc1)c1ccc(Cl)cc1 | 3.56 µM | 16.8 µM | 10.6 µM | 27.4 µM | 1.94 µM | 11.4 µM | 4.21 µM | 16.4 µM | 1.79 µM | 4.03 µM | 5.45 µM | 19.2 µM | 11.8 µM | 24.2 µM | 2.59 µM | 9.07 µM | 6.73 µM | 19.6 µM | 1.52 µM | 7.93 µM |
| CCn1cc(C2NC(=O)c3cc(F)ccc3N2)c2cccc(Cl)c21 (stereo not given) | 0.0879 µM | 0.402 µM | 0.0968 µM | > 100 µM | 0.374 µM | > 100 µM | 0.0843 µM | > 61.9 µM | 0.32 µM | > 100 µM | 0.503 µM | > 100 µM | 0.706 µM | > 100 µM | 0.485 µM | > 100 µM | 0.388 µM | > 100 µM | 0.123 µM | 11.9 µM |
| N#CC(/C(=N\NC(N)=S)C(=O)NC1C2CC3CC(C2)CC1C3)c1ccc(Cl)cc1 (stereo not given) |  | > 100 µM |  | > 100 µM |  | > 100 µM |  | > 100 µM |  | > 100 µM |  | > 100 µM |  | > 100 µM |  | > 100 µM |  | > 100 µM |  | > 100 µM |
| COCCOC(=O)CCn1cc(F)c(=O)[nH]c1=O | 0.989 µg/mL | > 150 µg/mL | 6.72 µg/mL | > 150 µg/mL | 10.4 µg/mL | > 150 µg/mL | 11 µg/mL | > 150 µg/mL | 0.821 µg/mL | > 150 µg/mL | 122 µg/mL | > 150 µg/mL | 37.1 µg/mL | > 150 µg/mL | 17.3 µg/mL | > 150 µg/mL | 7.36 µg/mL | > 150 µg/mL | 88.4 µg/mL | > 150 µg/mL |
| O=C(N/N=C\c1cc(Cl)ccc1O)N/N=C/c1cc(Cl)ccc1O | > 100 µM | > 100 µM | 0.676 µM | > 100 µM | 2.14 µM | > 100 µM | 0.918 µM | > 100 µM | 0.518 µM | > 100 µM | > 100 µM | > 100 µM | > 100 µM | > 100 µM | 2.49 µM | > 100 µM | 1.56 µM | > 100 µM | 0.969 µM | > 100 µM |
| O=C(O)CCN1C(=O)/C(=C/C(Cl)=C/c2ccccc2)SC1=S | 1.97 µM | 3.62 µM | 1.77 µM | 6.82 µM | 1.5 µM | 3.04 µM | 1.52 µM | 3.42 µM | 3.21 µM | 10.8 µM | 2.77 µM | 6.8 µM | 7.54 µM | 20.1 µM | 3.74 µM | 13.3 µM | 2.42 µM | 6.98 µM | 1.79 µM | 10.1 µM |
| O=C(NNc1ccc([N+](=O)[O-])cc1)C1OC(CO)C(O)C1O (stereo not given) |  | > 100 µM |  | > 100 µM |  | > 100 µM |  | > 100 µM |  | > 100 µM |  | > 100 µM |  | > 100 µM |  | > 100 µM |  | > 100 µM |  | > 100 µM |
| C[P+](C)(CC(F)(F)F)c1ccccc1 |  | > 100 µM |  | > 100 µM |  | > 100 µM |  | > 100 µM |  | > 100 µM |  | > 100 µM |  | > 100 µM |  | > 100 µM |  | > 100 µM |  | > 100 µM |
| Cc1ccc(Nc2ccnc(Nc3cccc(C(N)=O)c3)n2)cc1O | 7.31 µM | > 25 µM | 7.16 µM | > 25 µM | 3.02 µM | 7.22 µM | 7.08 µM | > 25 µM | 11.4 µM | > 25 µM | 10.2 µM | > 25 µM | 1.96 µM | 12.1 µM | 5.5 µM | > 19 µM | 5.37 µM | 15.1 µM | 0.431 µM | 3.93 µM |
| NC(=O)Cn1c(=O)[nH]c(=O)c2[nH]cnc21 |  | > 100 µM |  | > 100 µM |  | > 100 µM |  | > 100 µM |  | > 100 µM |  | > 100 µM |  | > 100 µM |  | > 100 µM |  | > 100 µM |  | > 100 µM |
| COc1ccc(-c2nc(N)nc(-c3cc(C)ccc3O)c2Cl)cc1 |  | > 100 µM |  | > 100 µM |  | > 100 µM |  | > 100 µM |  | > 100 µM |  | > 100 µM |  | 94.2 µM |  | > 100 µM |  | > 100 µM |  | 63.9 µM |
| CC(C)=CCC[C@](C)(O)[C@H]1CC[C@]2(C)[C@@H]1CC[C@@H]1[C@@]3(C)CC[C@H](OC(=O)CCC(=O)O)C(C)(C)[C@@H]3CC[C@]12C | 80.4 µM | > 100 µM | 19.5 µM | 48.6 µM | 16.6 µM | 30.7 µM | 15 µM | 32.5 µM | 36.4 µM | > 100 µM | 28.8 µM | 96.3 µM | 47.6 µM | > 100 µM | 37.6 µM | > 100 µM | 18.5 µM | 72.7 µM | > 100 µM | > 100 µM |
| Nc1ccccc1C#Cc1ccccc1C#CCCCCO | 21.9 µM | 77.8 µM | 19.8 µM | 42.5 µM | 17 µM | 32.6 µM | 11.9 µM | 32.5 µM | 30.5 µM | > 100 µM | 25.6 µM | 64.4 µM | > 100 µM | > 100 µM | 10.9 µM | 33.5 µM | 17.5 µM | 46.7 µM | 11.3 µM | 33.6 µM |
